According to patent publication US5646042A, “C-myb targeted ribozymes” (Ribozyme Pharmaceuticals, Inc., priority 1995, dated 1997):

Tested on: rat smooth muscle cells
Experiment: Serum-stimulated rat smooth muscle cell proliferation (BrdU incorporation)
Type: cell-based
Conditions: for % cell proliferation: no ribozyme; for augmentation of ribozyme inhibition of smooth muscle cell proliferation: 0.2 μM ribozyme 575 12/12 complexed with DMRIE/DOPE at 1:1 charge ratio
Experimental: The ribozymes that cleaved c-myb RNA described above were assayed for their effect on smooth muscle cell proliferation. Rat vascular smooth muscle cells were isolated and cultured as follows. Aortas from adult Sprague-Dawley rats were dissected, connective tissue was removed under a dissecting microscope, and 1 mm^2 pieces of the vessel were placed, intimal side up, in a Petri dish in Modified Eagle's Medium (MEM) with the following additives: 10% FBS, 2% tryptose phosphate broth, 1% penicillin/streptomycin and 2 mM L-Glutamine. The smooth muscle cells were allowed to migrate and grow to confluence over a 3-4 week period. These primary cells were frozen and subsequent passages were grown at 37° C. in 5% CO2 in Dulbecco's modified Eagle's medium (DMEM), 10% fetal bovine serum (FBS), and the following additives: 2 mM L-Glutamine, 1% penicillin/streptomycin, 1 mM sodium pyruvate, non-essential amino acids (0.1 mM of each amino acid), and 20 mM Hepes pH 7.4. Cells passed four to six times were used in proliferation assays. For the cell proliferation assays, 24-well tissue culture plates were prepared by coating the wells with 0.2% gelatin and washing once with phosphate-buffered saline (PBS). RASMC were inoculated at 1×10^4 cells per well in 1 ml of DMEM plus 10% FBS and additives and incubated for 24 hours. The cells were subconfluent when plated at this density. The cells were serum-starved by removing the medium, washing once with PBS, and incubating 48-72 hours in DMEM containing 0.5% FBS plus additives.
Serum-starved smooth muscle cells were washed twice with PBS, and the RNA/lipid complex was added. The plates were incubated for 4 hours at 37° C. The medium was then removed and DMEM containing 10% FBS, additives and 10 μM bromodeoxyuridine (BrdU) was added. In some wells, FBS was omitted to determine the baseline of unstimulated proliferation. The plates were incubated at 37° C. for 20-24 hours, fixed with 0.3% H2 O2 in 100% methanol, and stained for BrdU incorporation by standard methods. In this procedure, cells that have proliferated and incorporated BrdU stain brown; non-proliferating cells are counter-staineda light purple. Both BrdU positive and BrdU negative cells were counted under the microscope. 300-600 total cells per well were counted. In the following experiments, the percentage of the total cells that have incorporated BrdU (% cell proliferation) is presented. […] Percent inhibition then is calculated from the % cell proliferation values as follows: % inhibition=100-100((Ribozyme-0% serum)/(Control-0% serum)).
These include, but are not limited to, ammonium chloride, carbonyl cyanide p-trifluoromethoxy phenyl hydrazone (FCCP), chloroquine, monensin, colchicine, and viral particles (Cotten, M. et al., 1990, Proc. Natl. Acad. Sci. USA, 87, 4033-4037; Cotten, M. et al., 1993, J. Virol., 67, 3777-3785; Cotten, M. et al., 1992, Proc. Natl. Acad. Sci USA, 89, 6094-6098; Cristiano, R. J. et al., 1993, Proc. Natl. Acad. Sci. U S A, 90, 2122-6; Cudel, D. T. et al., 1991, Proc. Nat. Acad. Sci., USA, 88, 8850-8854; Ege, T. et al., 1984, Exp. Cell Res., 155, 9-16; Harris, C. E. et al., 1993, Am. J. Respir. Cell Mol. Biol., 9, 441-7; Seth, P. et al., 1994, J. Virol., 68, 933-40; Zenke, M. et al., 1990, Proc. Natl. Acad. Sci. USA, 87, 3655-3659). […] To determine whether such agents may augment the functional delivery of RNA and ribozymes to smooth muscle cells, the effects of chloroquine on ribozyme inhibition of smooth muscle cell proliferation were assessed. […]

CCN(CC)CCCC(C)Nc1ccnc2cc(Cl)ccc12 (centres unmarked) [chloroquine]
% cell proliferation (10 μM chloroquine added upon stimulation, stimulation with 10% serum): 80.5±1.5% | augmentation of ribozyme inhibition of smooth muscle cell proliferation (10 μM chloroquine): two- to three-fold | augmentation of ribozyme inhibition of smooth muscle cell proliferation (10 μM chloroquine, listed as Chloroquine): 2- to 3 fold | effect of chloroquine on untreated cells (proliferation) (10 μM chloroquine, cells without ribozyme): no effect | % cell proliferation (10 μM chloroquine, unstimulated cells): 7±0.5%
